Reference: patent US8067456B2 (AEterna Zentaris GmbH, priority 2004, dated 2011)
Converted amounts (≈) assume the structure as drawn.

What was measured:
[1] = Metabolic stability in human liver microsomes; type: in vitro ADME; conditions: 1 μM, 37° C., NADPH
Procedure: (§1) The metabolic stability in relation to liver microsomes (species human, rat) was determined in accordance with the following description: the substances were incubated at a test concentration of 1 […] An HPLC MS/MS method was subsequently used to quantify the unmetabolized amount of starting compound relative to 100%.

[2] = Saturation solubility in water; type: physicochemical; conditions: water, thermodynamic from solid; maximum of 1% DMSO added, HPLC UV
Procedure: The saturation solubility in water was determined in accordance with the following description: to initiate dissolving of the substances and to improve the wetting of the samples, a maximum of 1% DMSO was added. The content was checked by using an HPLC UV method.

[3] = biological target: T1, rat LHRH receptor (Rattus norvegicus, UniProt P30969); assay: LHRH receptor-ligand binding assay (transfected LTK cells); conditions: LTK cells transfected with rat LHRH receptor, 125I-triptorelin tracer, 37° C., 60 min; read-out: Binding to r-LHRHR EC50
T1 construct: expressed in transfected cells; host or cells: LTK cells (mouse fibroblasts, ATCC CCL-1.3)
T1 sequence (P30969 1-327): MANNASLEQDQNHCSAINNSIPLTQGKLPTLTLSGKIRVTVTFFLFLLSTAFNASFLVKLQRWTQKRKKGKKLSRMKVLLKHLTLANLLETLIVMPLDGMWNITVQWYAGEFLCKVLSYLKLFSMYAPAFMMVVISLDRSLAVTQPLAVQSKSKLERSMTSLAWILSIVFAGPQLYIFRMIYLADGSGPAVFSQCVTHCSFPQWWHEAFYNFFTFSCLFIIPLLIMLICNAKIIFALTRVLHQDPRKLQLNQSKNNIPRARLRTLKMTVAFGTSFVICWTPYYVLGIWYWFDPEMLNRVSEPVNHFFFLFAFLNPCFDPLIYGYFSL
Procedure: ^125I-Triptorelin [^125I-(D)-Trp6-GnRH] was purchased from Biotrend (Cologne, Germany).
The specific activity was in each case 2.13 Ci/mmol.
LTK cells (mouse fibroblasts: ATCC No. CCL-1.3) which have been transfected with the rat LHRH receptor are cultivated in DMEM medium (Invitrogen Life Technologies, Germany) with penicillin (100 I.U./ml), streptomycin (0.1 mg/ml) and glutamine (0.01 mol/l) and 10% fetal calf serum (FCS; Invitrogen Life Technologies, Germany) on plastic tissue culture plates (Nunc, Germany, 245×245-20 mm).
80% confluent cell culture plates are washed twice with 50 ml of phosphate-buffered saline (PBS) and then detached with 0.01 M EDTA solution. The cells are pelleted by centrifugation at 200·g for 5 min in a laboratory centrifuge (Kendro, Germany). The cell pellet is resuspended in 3 ml of binding medium (DMEM; 10 mM Hepes; 0.5% BSA; 0.1% […]; 1 g/l bacitracin (add fresh, stock 100×); 0.1 g/l SBTI (add fresh, stock 1000×) and the cell count is determined by Trypan blue staining in a Neubauer counting chamber. The cell suspension is adjusted with binding medium to a concentration of 5×10^5 cells/0.05 ml.
Binding studies for competition plots are carried out as duplicates. The test substances are employed as 10 mM DMSO solutions. They are diluted to 4 times the final concentration employed with binding medium. 25 μl of the substance dilution are mixed with 25 μl of tracer solution (^125I-triptorelin or ^125I-cetrorelix). The tracer concentration is adjusted to approx. 50 000 cpm (measured in a Cobra II, γ counter. PE Liefe Science, Germany) in the final reaction volume of 100 μl.
200 μl of silicone/liquid paraffin mixture (84%:16%) are introduced into 650 μl conical tubes (Roth. Germany). 50 μl of the cell suspension are pipetted thereon, followed by 50 μl of the test substance/tracer mixture. The tubes are capped and incubated with vertical rotation in an incubator at 37° C. for 60 min. After incubation, the samples are centrifuged in a centrifuge (Kendro, Germany) at 900 rpm and subsequently shock-frozen in liquid N2. The tip with the cell pellet is cut off and transferred into prepared counting vials (Roth, Germany). The remainder of the conical tube with the remaining supernatant is likewise transferred into a counting vial. The measurement takes place in a γ counter for 1 min/sample.
Evaluation of the samples takes place after calculation of the specific binding compared with untreated cells, after subtraction of the nonspecific binding (excess of unlabeled ligand, 1 μM) by means of GraphPad Prism or alternatively by means of OMMM software.

[4] = Metabolic stability in rat liver microsomes; type: in vitro ADME; conditions: 1 μM, 37° C., NADPH
Procedure: as §1

Q: What does the source list for `CCC(C)[C@H](NC(=O)OCc1ccccc1)C(=O)N[C@]1(C(=O)N[C@H](C(N)=S)C(C)CC)CCc2[nH]c3c(Cl)cc(Cl)cc3c2C1` (stereo partly drawn) [Compound 7, benzyl {(S)-1-[(R)-6,8-dichloro-3-((S)-2-methyl-1-thiocarbamoylbutylcarbamoyl)-2,3,4,9-tetrahydro-1H-carbazol-3-ylcarbamoyl]-2-methylbutyl}carbamate]?
A: recovery at 1 μM [1]: 65%; solubility [2]: 0.0546 mg/mL (≈ 80.9 µM); EC50 [3]: 7.9 nM; recovery at 1 μM [4]: 78%
